Test systems include CCRF-CEM leukemia; COLO 205 colon; HCC-2998 colon; HS 578T breast; M14 melanoma; OVCAR-8 ovarian; PC-3 prostate; SF-539 CNS; SK-MEL-5 melanoma; U251 CNS.
Common to all, as to experiment: NCI anticancer screen, dose series, 48 h

The results in this text go back to PubChem BioAssay (NCI).

“And” between values parts separate entries of the source, which are not always exact repeats. Equal values may be shown once.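 96-well plates; 48 h exposure; 5 concentrations. Endpoints by linear interpolation between flanking doses. Not reached: highest tested concentration assigned. Here, GI50 denotes the concentration required for 50% inhibition of growth. TGI denotes the concentration required for complete inhibition of growth.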 Some results are limits rather than exact numbers.

Regarding `CCN(CC)CCNCc1cc(Cl)cc2c1OCOC2`, the TGI in the assay with CCRF-CEM leukemia, in the assay with COLO 205 colon, in the assay with HCC-2998 colon, with HS 578T breast, in the assay on M14 melanoma and in the assay with OVCAR-8 ovarian was over 10 µM in each case. Besides, the TGI in the assay with PC-3 prostate, in the assay with SF-539 CNS, with SK-MEL-5 melanoma and in the assay on U251 CNS was over 10 µM in each case.

On to `CC(C)[C@@H]1ON1C(C)c1ccccc1` (stereo partly specified), for which the TGI in the assay on CCRF-CEM leukemia, in the assay with COLO 205 colon, in the assay with HCC-2998 colon, with HS 578T breast, with M14 melanoma and with OVCAR-8 ovarian was over 100 µM each time. For the same compound, the TGI with PC-3 prostate, in the assay on SF-539 CNS, in the assay on SK-MEL-5 melanoma and in the assay with U251 CNS was over 100 µM throughout.

With `C/C1=C\[C@@H](O)C(=O)/C=C/C=C\c2csc(n2)[C@@H](C)NC(=O)C[C@@]2(CC1)S(=O)SC(=O)[C@]2(C)O` (stereo partly specified), the TGI with CCRF-CEM leukemia is over 100 µM; in the assay with COLO 205 colon, 0.0903 µM and 0.0418 µM; in the assay on HCC-2998 colon, 0.676 µM; in the assay on HS 578T breast, 0.435 µM; in the assay on M14 melanoma, 0.0397 µM; in the assay with OVCAR-8 ovarian, 0.0624 µM and 0.0152 µM. Moreover, the TGI in the assay with PC-3 prostate was 0.0387 µM; in the assay on SF-539 CNS, 0.0495 µM and 0.023 µM; in the assay on SK-MEL-5 melanoma, 0.0435 µM and 0.0168 µM; in the assay with U251 CNS, 0.209 µM and 0.267 µM. The GI50 in the assay with U251 CNS was 0.0122 µM.

For `COC12c3ccccc3-c3ccccc3C1[C@H]1C(=O)OC(=O)[C@H]12` (stereo partly specified), the TGI with CCRF-CEM leukemia, with COLO 205 colon, in the assay on HCC-2998 colon, with HS 578T breast, in the assay with M14 melanoma and in the assay on OVCAR-8 ovarian was over 10 µM each time. Also, the TGI with PC-3 prostate, in the assay on SF-539 CNS, in the assay on SK-MEL-5 melanoma and with U251 CNS was over 10 µM throughout.

`CCC(c1c[nH]c2ccc(Br)cc12)c1c[nH]c2ccc(Br)cc12`: the TGI in the assay on CCRF-CEM leukemia came to 13.7 µM; with COLO 205 colon it was 6.09 µM; in the assay on HCC-2998 colon, 5.73 µM; with HS 578T breast, 27 µM; in the assay with M14 melanoma, 14.2 µM; in the assay with OVCAR-8 ovarian it was 21.2 µM. In addition, the TGI with PC-3 prostate was 17.1 µM; in the assay with SF-539 CNS, 28.6 µM; with SK-MEL-5 melanoma, 26.8 µM; in the assay with U251 CNS, 13.3 µM.
